Results from the supplement of paper PMC10307832.

Legend:
[1] = compound: CC(O)(CS(=O)(=O)c1ccc(F)cc1)C(=O)Nc1ccc(C#N)c(C(F)(F)F)c1 [Bicalutamide]; experiment: relative viability (nuclei count vs DMSO), 5 days (fraction); higher = more cells survive
How it was run: (§1)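 Lung cancer cell lines in 1536-well plates were exposed by pinning to five library-drug doses (not always all listed) √10 apart, following an overnight hold at 37 °C. MetaXpress counted Hoechst-stained nuclei from 4× images taken after 5 days without medium change. Viability is the median ratio of treated-well to vehicle-well nuclei across plates. Plates required control CV below 25% and at least one doubling.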

[2] = compound: C(C(=O)C(=O)O)Br [Bromopyruvate]; experiment: as above
How it was run: as §1

Cell Line	relative viability ([1]; 0.08 µM)	relative viability ([1]; 0.253 µM)	relative viability ([1]; 0.8 µM)	relative viability ([1]; 2.53 µM)	relative viability ([2]; 1 µM)	relative viability ([2]; 3.162 µM)	relative viability ([2]; 10 µM)	relative viability ([2]; 31.62 µM)	relative viability ([2]; 100 µM)
NCI-H1792	0.987	0.779	1.19	0.962	1.14	1.21	0.805	0.811	0.928
NCI-H1793	0.823	0.736	1.02	0.809	1.03	1.09	1.12	0.959	1.08
NCI-H1915	1.01	0.922	1.14	0.964	1.02	0.984	1	1.01	0.997
NCI-H1944	0.993	0.873	1.06	0.978	1.02	0.995	0.967	0.904	1
NCI-H1975	0.935	0.942	0.998	0.775	1.02	0.962	1	0.939	0.906
NCI-H1993	0.896	0.811	0.987	0.996	0.833	1.01	1.1	0.945	0.951
NCI-H2009	1.11	1.05	1.04	0.927	0.975	1.04	0.96	0.925	0.734
NCI-H2023	1.01	0.903	1.17	0.907	0.893	0.962	1.15	0.958	0.959
NCI-H2085	1.01	0.955	1.01	0.94	1	1.04	1.03	1.07	1.02
